The record followed here is ChEMBL document CHEMBL4376860, “Discovery of Novel Dual Poly(ADP-ribose)polymerase and Phosphoinositide 3-Kinase Inhibitors as a Promising Strategy for Cancer Therapy” (J Med Chem, 2020).

Test [1] concerns the target Poly [ADP-ribose] polymerase 1 (Homo sapiens, UniProt P09874). The test can be described thus: Inhibition of recombinant human PARP1 using histone as substrate after 1 hr in presence of biotinylated NAD+ by ELISA.
Test [2] has as its target Phosphatidylinositol 4,5-bisphosphate 3-kinase catalytic subunit alpha isoform (Homo sapiens, UniProt P42336). As to the kind of experiment: Inhibition of PI3Kalpha (unknown origin) using PIP2 as substrate measured after 1 hr by ADP-glo plus luminescence assay. On the technique in general: In ADP-Glo the light output rises with the ADP produced.

Chain of Poly [ADP-ribose] polymerase 1 (P09874 whole entry, canonical isoform): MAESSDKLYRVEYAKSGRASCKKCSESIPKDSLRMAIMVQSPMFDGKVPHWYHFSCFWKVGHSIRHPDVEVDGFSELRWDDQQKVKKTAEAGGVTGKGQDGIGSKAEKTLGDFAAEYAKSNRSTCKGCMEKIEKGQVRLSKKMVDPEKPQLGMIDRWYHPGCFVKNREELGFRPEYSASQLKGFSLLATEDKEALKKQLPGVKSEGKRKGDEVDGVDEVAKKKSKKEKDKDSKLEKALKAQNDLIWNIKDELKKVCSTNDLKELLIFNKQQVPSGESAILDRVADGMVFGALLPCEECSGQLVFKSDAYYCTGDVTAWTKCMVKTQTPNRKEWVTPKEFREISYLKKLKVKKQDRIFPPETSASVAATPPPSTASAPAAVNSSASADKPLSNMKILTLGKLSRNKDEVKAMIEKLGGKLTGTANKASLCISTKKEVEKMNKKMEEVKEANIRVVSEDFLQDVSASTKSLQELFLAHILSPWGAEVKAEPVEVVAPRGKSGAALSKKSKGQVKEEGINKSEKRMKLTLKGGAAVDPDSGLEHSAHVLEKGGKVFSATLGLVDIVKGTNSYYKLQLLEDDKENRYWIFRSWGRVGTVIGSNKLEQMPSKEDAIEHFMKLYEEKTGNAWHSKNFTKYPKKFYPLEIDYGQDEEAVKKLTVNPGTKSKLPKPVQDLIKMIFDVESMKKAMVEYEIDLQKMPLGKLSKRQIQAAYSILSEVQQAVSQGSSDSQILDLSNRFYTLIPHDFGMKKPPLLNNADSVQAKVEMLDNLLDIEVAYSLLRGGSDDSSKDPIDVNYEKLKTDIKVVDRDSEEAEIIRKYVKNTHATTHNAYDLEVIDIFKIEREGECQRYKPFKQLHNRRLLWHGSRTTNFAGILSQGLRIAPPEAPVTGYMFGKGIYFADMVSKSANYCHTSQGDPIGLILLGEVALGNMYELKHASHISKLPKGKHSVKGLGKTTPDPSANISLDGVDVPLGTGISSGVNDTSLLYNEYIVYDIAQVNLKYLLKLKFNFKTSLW
Chain of Phosphatidylinositol 4,5-bisphosphate 3-kinase catalytic subunit alpha isoform (P42336 whole entry, canonical isoform): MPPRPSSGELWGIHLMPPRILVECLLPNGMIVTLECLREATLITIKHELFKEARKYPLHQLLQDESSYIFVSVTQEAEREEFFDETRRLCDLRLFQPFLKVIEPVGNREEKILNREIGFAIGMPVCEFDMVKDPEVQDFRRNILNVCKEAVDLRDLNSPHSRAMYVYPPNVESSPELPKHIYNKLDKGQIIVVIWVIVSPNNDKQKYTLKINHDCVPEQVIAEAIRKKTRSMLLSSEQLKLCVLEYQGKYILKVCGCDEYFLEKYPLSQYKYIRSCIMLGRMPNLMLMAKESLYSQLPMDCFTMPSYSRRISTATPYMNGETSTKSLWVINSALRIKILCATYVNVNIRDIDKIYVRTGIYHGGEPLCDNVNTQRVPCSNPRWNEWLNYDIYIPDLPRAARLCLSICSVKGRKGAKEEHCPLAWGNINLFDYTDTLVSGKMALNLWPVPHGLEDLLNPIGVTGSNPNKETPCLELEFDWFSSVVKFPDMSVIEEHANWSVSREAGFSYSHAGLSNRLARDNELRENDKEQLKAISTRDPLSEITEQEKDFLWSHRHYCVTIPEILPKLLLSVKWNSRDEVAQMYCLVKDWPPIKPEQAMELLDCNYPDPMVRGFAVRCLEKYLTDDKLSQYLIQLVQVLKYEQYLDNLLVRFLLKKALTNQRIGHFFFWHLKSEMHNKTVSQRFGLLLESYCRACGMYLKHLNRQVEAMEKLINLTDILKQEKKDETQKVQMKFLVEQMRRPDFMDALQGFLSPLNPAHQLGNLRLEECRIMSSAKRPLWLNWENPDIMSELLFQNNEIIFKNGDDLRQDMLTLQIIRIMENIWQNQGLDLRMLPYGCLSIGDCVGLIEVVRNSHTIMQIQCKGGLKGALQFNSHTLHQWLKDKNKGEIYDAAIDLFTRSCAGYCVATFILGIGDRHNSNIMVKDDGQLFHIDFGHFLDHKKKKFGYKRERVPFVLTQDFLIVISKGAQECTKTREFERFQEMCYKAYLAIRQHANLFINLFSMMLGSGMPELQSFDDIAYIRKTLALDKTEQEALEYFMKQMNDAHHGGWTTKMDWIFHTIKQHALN

For orientation: IC50 means the concentration needed to halve the response being measured. With `Nc1ccc(-c2nc(N3CCOCC3)nc(N3CCN(C(=O)c4cc(Cc5n[nH]c(=O)c6ccccc56)ccc4F)CC3)n2)cc1`, the IC50 is 0.00117 µM in test [1] and 0.331 µM in test [2].

As for `Nc1ccc(-c2nc3c(c(N4CCOCC4)n2)CCN(C(=O)c2cc(Cc4n[nH]c(=O)c5ccccc45)ccc2F)C3)cn1`, the half-inhibitory concentration (IC50) in test [1] was 0.00794 µM; in test [2], 0.0302 µM.

As to `Nc1ccc(-c2nc(N3CCOCC3)nc(N3CCN(C(=O)c4cc(Cc5n[nH]c(=O)c6ccccc56)ccc4F)CC3)n2)cc1F`, the figures for the IC50 in test [1] and in test [2] were 0.000832 µM and 0.562 µM, respectively.

`Nc1ccc(-c2nc(N3CCOCC3)nc(N3CCN(C(=O)c4cc(Cc5n[nH]c(=O)c6ccccc56)ccc4F)CC3)n2)c(F)c1`: the IC50 in test [1] was 0.000724 µM; in test [2] it was 0.708 µM.

Consider `O=C(c1cc(Cc2n[nH]c(=O)c3ccccc23)ccc1F)N1CCc2c(nc(-c3cccc4[nH]ccc34)nc2N2CCOCC2)C1`, for which the IC50 was 0.0049 µM in test [1] and 0.0437 µM in test [2].

With `O=C(c1cc(Cc2n[nH]c(=O)c3ccccc23)ccc1F)N1CCN(c2nc(-c3ccc4cn[nH]c4c3)nc(N3CCOCC3)n2)CC1`, the concentration for half-maximal inhibition (IC50) in test [1] was 0.000676 µM; in test [2], greater than 10 µM.

On to `O=C(c1cc(Cc2n[nH]c(=O)c3ccccc23)ccc1F)N1CCN(c2nc(-c3cccc4[nH]ccc34)nc(N3CCOCC3)n2)CC1`, for which the results for the IC50 in test [1] and in test [2] were 0.000646 µM and 0.631 µM, respectively.

As for `O=C(c1cc(Cc2n[nH]c(=O)c3ccccc23)ccc1F)N1CCc2c(nc(-c3cccc4[nH]ncc34)nc2N2CCOCC2)C1`, the IC50 was 0.00617 µM in test [1] and 0.0447 µM in test [2].

For the compound `Nc1ccc(-c2nc(N3CCOCC3)nc(N3CCN(C(=O)c4cc(Cc5n[nH]c(=O)c6ccccc56)ccc4F)CC3)n2)cn1`, the half-maximal inhibitory concentration (IC50) in test [1] is 0.00107 µM; in test [2], 0.132 µM.

With `O=C(c1cc(Cc2n[nH]c(=O)c3ccccc23)ccc1F)N1CCN(c2nc(-c3cccc4[nH]ncc34)nc(N3CCOCC3)n2)CC1`, the IC50 in test [1] was 0.000437 µM; in test [2], 0.347 µM.

As for `Nc1cc(C(F)(F)F)c(-c2nc(N3CCOCC3)nc(N3CCN(C(=O)c4cc(Cc5n[nH]c(=O)c6ccccc56)ccc4F)CC3)n2)cn1`, the IC50 was 0.00955 µM in test [1] and 0.17 µM in test [2].

On to `Nc1cc(-c2nc(N3CCOCC3)nc(N3CCN(C(=O)c4cc(Cc5n[nH]c(=O)c6ccccc56)ccc4F)CC3)n2)ccc1F`, for which the figures for the IC50 in test [1] and in test [2] were 0.0011 µM and 2.29 µM, respectively.

`Nc1ncc(-c2nc(N3CCOCC3)nc(N3CCN(C(=O)c4cc(Cc5n[nH]c(=O)c6ccccc56)ccc4F)CC3)n2)cc1C(F)(F)F`: the 50% inhibitory concentration (IC50) in test [1] is 0.00112 µM; in test [2], 1.2 µM.

Take `O=C(c1cc(Cc2n[nH]c(=O)c3ccccc23)ccc1F)N1CCN(c2nc(-c3ccc4[nH]ccc4c3)nc(N3CCOCC3)n2)CC1`: the half-inhibitory concentration (IC50) is 0.000692 µM in test [1] and 0.692 µM in test [2].

Regarding `Nc1cc(C(F)(F)F)c(-c2cc(N3CCN(C(=O)c4cc(Cc5n[nH]c(=O)c6ccccc56)ccc4F)CC3)nc(N3CCOCC3)n2)cn1`, the concentration for half-maximal inhibition (IC50) in test [1] is 0.0155 µM; in test [2], 0.324 µM.
